Holding throughout (format): cell-based
One test concerns outbred mouse embryo. Briefly: Outbred mouse embryo development in culture, fertilized eggs cultured 4 days (G1.2 48 h, then G2.2 48 h). The method, then: Embryos were cultured at 37° C. in 6% CO2:5% O2:89% N2 in an embryo incubation volume of 10 embryos: 20 μl of medium. Embryos were cultured in medium G 1.2 for 48 h followed by 48 h of culture in medium G 2.2.
Initial experiments investigated replacing albumin purified from blood with HYN for outbred mouse embryo development in culture. Fertilized eggs were cultured for 4 days in one of 4 different concentrations of HYN. Embryos were cultured at 37° C. in 6% CO2:5% O2:89% N2 in an embryo incubation volume of 10 embryos: 20 μl of medium. Embryos were cultured in medium G1.2 for 48 h followed by 48 h of culture in medium G2.2. The negative control treatment was no protein.
Fertilized eggs were cultured for 4 days. Embryos were cultured at 37° C. in 6% CO2:5% O2:89% N2 in an embryo incubation volume of 10 embryos: 20 μl of medium. Embryos were cultured in medium G 1.2 for 48 h followed by 48 h of culture in medium G 2.2.
Embryos were cultured at 37° C. in 6% CO2:5% O2:89% N2 in an embryo incubation volume of 10 embryos: 20 μl of medium. Embryos were cultured in medium G1.2 for 48 h followed by 48 h of culture in medium G2.2.

For a further test, the system named is mouse embryo. Briefly: Mouse embryo development in culture, 48 h in G1.2, with or without citrate. Here is the method: Embryos were cultured at 37° C. in 6% CO2:5% O2:89% N2 in an embryo incubation volume of 10 embryos: 20 μl of medium. Embryos were cultured in medium G1.2 for 48 h.
The subject of a further test is cow embryos. Put plainly: Cow embryo development in culture, fertilized eggs cultured 6 to 7 days (G1.2 72 h, then G2.2 72 h). To be noted: Example 7, cow. Here is the method: (§1) Fertilized eggs were cultured for 6 to 7 days. Embryos were cultured at 38.5° C. in 6% CO2:5% O2:89% N2 in 500 μl of medium. Embryos were cultured in medium G1.2 for 72 h followed by 72 h of culture in medium G2.2.
as §1
Fertilized eggs were cultured for 6 to 7 days. Embryos were cultured at 38.5° C. in 6% CO2:5% O2:89% N2 in 500 μl of medium. Embryos were cultured in medium G1.2 for 72 h, followed by 72 h of culture in medium G2.2. Blastocysts were either stained for cell numbers or frozen and subsequently thawed to assess survival.

A further test relates to CF1 mouse blastocysts. Put plainly: Blastocyst attachment and outgrowth in culture following cryopreservation. The method, then: The ability of the blastocysts to outgrow in culture following cryopreservation was also assessed. The outgrowth of both the ICM and TE was scored between 0-3 where 0 represented no outgrowth and 3 represented extensive outgrowth.
The mark [1] stands for this setting: treatment +/+ (citrate in first 48 h / further 48 h), medium with rHA and HYN.
The mark [2] stands for this setting: treatment +/− (citrate in first 48 h / further 48 h), medium with rHA and HYN.
Setting [3] is: treatment −/+ (citrate in first 48 h / further 48 h), medium with rHA and HYN.
The mark [4] stands for this setting: citrate added to medium G1.2 with rHA and HYN.
[5] abbreviates: HYN 0.125 mg/ml, no protein, 4 days culture.
The mark [6] stands for this setting: HYN 0.5 mg/ml, no protein, 4 days culture.
[7] abbreviates: HYN 1 mg/ml, no protein, 4 days culture.

Marks after values point to notes of the source that are not given here.

As for `O=C(O)CC(O)(CC(=O)O)C(=O)O` [citrate], the embryo development entry with outbred mouse embryo (Example 6, citrate added to medium with rHA and HYN, 96 h) was “significantly increased”. For the same compound, in the test on outbred mouse embryo (setting [1]), the “% ICM/Total” value is on record as 30.4%, the “Cell Number” value is recorded as 100.7, the “Hatching (% of Total)” value stood at 18.2% and the “Morula/Blastocyst (%)” value turned out to be 72.7%. Also, in the test on outbred mouse embryo (setting [1]), the “TE Number” value stood at 69.8 and the “Total Blastocyst (%)” value worked out at 62.7%. For the same compound, in the test on outbred mouse embryo (setting [2]), the “% ICM/Total” value is 30.7%, the “Cell Number” value stood at 112.6, the “Hatching (% of Total)” value was 16.8% and the “ICM Number” value worked out at 34.9. In the test with outbred mouse embryo (setting [2]), the “Morula/Blastocyst (%)” value is recorded as 71.3%, the “TE Number” value is 77.7 and the “Total Blastocyst (%)” value amounted to 67.3%. For the same compound, in the test with outbred mouse embryo (setting [3]), the “% ICM/Total” value is 34.5%, the “Cell Number” value came out at 94.8, the “Hatching (% of Total)” value was found to be 23.2% and the “ICM Number” value came to 33.4. Also, in the test on outbred mouse embryo (setting [3]), the “Morula/Blastocyst (%)” value stood at 68.5%, the “TE Number” value is listed as 61.44 and the “Total Blastocyst (%)” value is reported as 64.8%. For the same compound, in the test on mouse embryo (setting [4]), the “% 8 cell” value is recorded as 81.1* %, the “% compacted” value is reported as 12.2* % and the “Day 3 mean cell number” value is recorded as 7.21 ± 0.13. For the same compound, in the test with mouse embryo (citrate added to medium containing rHA and fermented HYN), the embryo development result is listed as “significant increase”.
As for hyaluronan [HYN], in the test on outbred mouse embryo (setting [5]), the “% ICM/Total” value is 26.5 ± 0.6^ac %, the Blastocyst was 88.6^a, the “Cell Number” value is on record as 79.6 ± 1.9^bc and the Hatching worked out at 57.1b^c. Besides, in the test on outbred mouse embryo (setting [5]), the “ICM Number” value is 21.2 ± 0.8^bc and the “TE Number” value is given as 58.7 ± 1.5^bc. Moreover, in the test on outbred mouse embryo (setting [6]), the “% ICM/Total” value is given as 28.3 ± 1.1^bc %, the Blastocyst was 100^a, the “Cell Number” value is listed as 64.2 ± 1.9^ac and the Hatching was 50^b. For the same compound, in the test on outbred mouse embryo (setting [6]), the “ICM Number” value was 18.0 ± 0.7^ac and the “TE Number” value is reported as 46.7 ± 2.0^a. Moreover, in the test on outbred mouse embryo (setting [7]), the “% ICM/Total” value is reported as 26.4 ± 0.9^ac %, the Blastocyst is reported as 61.8^b, the “Cell Number” value is given as 62.0 ± 2.7^ac and the Hatching was 23.5^a. In addition, in the test with outbred mouse embryo (setting [7]), the “ICM Number” value was 17.5 ± 0.8^ac and the “TE Number” value is given as 49.1 ± 2.5^a. Moreover, the mouse embryo development result in the test on outbred mouse embryo (concentrations from 0.125 to 0.5 mg/ml) is on record as “stimulated”. Besides, the “Total Blastocyst Day 6” value in the test on cow embryos (day 6) is 16.9^b. In addition, the “Total Blastocyst Day 7” value in the test with cow embryos (day 7) is on record as 30.4. The “development of the ICM (outgrowth) compared to human serum albumin” value in the test on CF1 mouse blastocysts is reported as “increased”.
